The results in this text go back to ChEMBL document CHEMBL6092150, “Exploration of isatin-based inhibitors of SARS-CoV-2 Nsp15 endoribonuclease” (Eur J Med Chem, 2024).

The target of data set [1] is Replicase polyprotein 1ab (Severe acute respiratory syndrome coronavirus 2) (UniProt P0DTD1). The data set can be described thus: Inhibition of SARS-CoV-2 recombinant GST-tagged nsp15 endonuclease activity using 5'-6-FAM-AArUAA-lowa Black FQ-3' as substrate assessed as cleavage of substrate at 100 uM measured every 2 min for 1 hrs by FRET-based Nsp15 EndoU assay relative to control.

Data set [2] shares this target. The data set can be described thus: (§1) Inhibition of SARS-CoV-2 recombinant GST-tagged nsp15 endonuclease activity using 5'-6-FAM-AArUAA-lowa Black FQ-3' as substrate assessed as cleavage of substrate measured every 2 min for 1 hrs by FRET-based Nsp15 EndoU assay.
The target of data set [3] is Replicase polyprotein 1ab (Severe acute respiratory syndrome coronavirus 2, UniProt P0DTD1). Described as §1.
The nature of data set [4]: Cytotoxicity against human A549 cells by MTS cell viability analysis. It is filed as toxicity, cell-based.
For data set [5], the system named is Vero C1008. The data set can be described thus: Cytotoxicity against african green monkey Vero E6 cells at 100 uM incubated for 72 hrs by MTT cell viability assay. It is filed as toxicity, cell-based. Particulars: chlorocebus sabaeus, vero c1008, 72 h.
For data set [6], the system named is MRC5. The data set can be described thus: Cytotoxicity against human MRC5 cells at 100 uM incubated for 72 hrs by MTT cell viability assay. To be noted: mrc5, 72 h. It is filed as toxicity, cell-based.
Data set [7] addresses Replicase polyprotein 1ab (Severe acute respiratory syndrome coronavirus 2) (UniProt P0DTD1). The data set can be described thus: Effect on SARS-CoV-2 recombinant Nsp15 oligomerization state at 0.1 to 1 mM by Commassie-Native gel electrophoresis. Particulars: dose 0.1-1 mM.

The source made the active and inactive calls. The calls are words filed in the database; no cut-off is given here.

As for `O=C1Nc2c(Br)cc(Br)cc2C1=O`, the inhibition in data set [1] is 58.4%.

With `N#CC(C#N)=C1C(=O)Nc2ccc(I)cc21`, the inhibition entry in data set [2] is “Dose-dependent-effect”; in data set [1], 32.6%. Besides, in data set [3], the IC50 was found to be 151 µM.

In turn, `N#C[C@@]1(c2ccc3c(N)ncnn23)O[C@H](CO)[C@@H](O)[C@H]1O` [GS-441524] displayed a CC50 in data set [4] greater than 40 µM.

Regarding `O=C1Nc2ccc([N+](=O)[O-])cc2C1=O` [5-NITROISATIN], the Activity result in data set [5] and in data set [6] was “Non-toxic” in each case. The inhibition in data set [1] was found to be 40.7%.

Consider `O=C1Nc2ccc(F)cc2C1=O`, for which the inhibition in data set [1] turned out to be 13.6%.

As for `N#CC(C#N)=C1C(=O)Nc2ccc(F)cc21`, the inhibition entry in data set [2] was “Dose-dependent-effect”; in data set [1], 30.2%. Moreover, in data set [3], the IC50 worked out at 236 µM.

As for `N#CC(C#N)=C1C(=O)Nc2c(Br)cc(Br)cc21`, in data set [7], the outcome was inactive. Also, the inhibition result in data set [2] is “Dose-dependent-effect”; in data set [1] it was 68.1%. Also, the IC50 in data set [3] was determined as 53.5 µM. Further, the Activity result in data set [5] and in data set [6] was “Non-toxic” in each case. The same compound displayed a CC50 in data set [4] of 134 µM.

In the case of `O=C1Nc2ccc(Br)cc2C1=O`, in data set [1], the inhibition was found to be 32.7%.

Consider `N#CC(C#N)=C1C(=O)Nc2ccc(Br)cc21`, for which the inhibition entry is “Dose-dependent-effect” in data set [2] and 55.9% in data set [1]. Also, the concentration for half-maximal inhibition (IC50) in data set [3] was determined as 82.9 µM.

With `N#CC(C#N)=C1C(=O)Nc2ccc([N+](=O)[O-])cc21`, the outcome in data set [7] was inactive. The inhibition result in data set [2] is “Dose-dependent-effect”; in data set [1] it was 61.5%. For the same compound, in data set [3], the IC50 amounted to 43.5 µM. The Activity result in data set [5] and in data set [6] was “Non-toxic” each time. Moreover, the midpoint of cytotoxicity in data set [4], the CC50, lay at 189 µM.

On to `O=C1Nc2ccc(I)cc2C1=O`, for which, in data set [1], the inhibition was found to be 26.2%.
